Experimental data reported in PubChem BioAssay (NCI).
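Values below derive from 48-hour exposures of cells grown in 96-well plates, with endpoints linearly interpolated between the two concentrations bracketing the appropriate inhibition level. TGI: concentration producing complete growth inhibition.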 Where a SMILES comes first, the peptide text is derived from it.

What was measured:
Assay in all cases: DTP human tumour cell line panel, 48 h
A498 renal = tested on: A498 renal
DU-145 prostate = tested on: DU-145 prostate
HCT-15 colon = tested on: HCT-15 colon
HT29 colon = tested on: HT29 colon
KM12 colon = tested on: KM12 colon
NCI-H226 lung = tested on: NCI-H226 lung
NCI-H460 lung = tested on: NCI-H460 lung
RPMI-8226 leukemia = tested on: RPMI-8226 leukemia
SK-MEL-5 melanoma = tested on: SK-MEL-5 melanoma
SR leukemia = tested on: SR leukemia

SMILES | TGI (A498 renal) [µM] | TGI (DU-145 prostate) [µM] | TGI (HCT-15 colon) [µM] | TGI (HT29 colon) [µM] | TGI (KM12 colon) [µM] | TGI (NCI-H226 lung) [µM] | TGI (NCI-H460 lung) [µM] | TGI (RPMI-8226 leukemia) [µM] | TGI (SK-MEL-5 melanoma) [µM] | TGI (SR leukemia) [µM]
CCOC(=O)C12CC(C)=C(C)CC1CCCc1ccccc12 (centres undefined) | 62.7 | > 100 | 59.8 | 36.5 | > 100 | 56 | 32.7 | 34.2 | 37.5 | 84.4
COP(=O)(OC)[C@H](O)[C@H]1C[C@@H]1c1ccccc1 | > 100 | > 100 | > 100 | > 100 | > 100 | > 100 | > 100 | > 100 | > 100 | 
COc1ccc(N=Cc2ccc(N(CCC#N)S(=O)(=O)c3ccccc3)cc2C)cc1 |  |  | > 100 | > 100 |  | > 100 | > 100 | > 100 | > 100 | > 100
COc1cc(C2C(=O)C(Cl)N2Nc2nc(C)cc(=O)[nH]2)cc(OC)c1OC (centres undefined) |  |  | 31.9 | 66.2 | 76.9 | 62.6 | 21.9 |  | 26.5 | 77.1
Cc1ccc2c3c1[C@@H]1O[C@@H]1c1cccc(c1-3)[C@@H]1O[C@H]21 | 43.6 | 22.9 | 36.7 | 23.4 | 28.8 | 84.7 |  |  | 30.6 | 59.3
COc1cccc(NC(=O)CC(=O)NN2C(=O)/C(=C/c3ccc(N(CCC#N)CCC#N)cc3)N=C2c2cc([N+](=O)[O-])ccc2Cl)c1 |  |  | > 100 |  | > 100 | 30.1 |  | > 100 | > 100 | > 100
Cc1cn(Cc2cn(CC3OC(n4cc(C)c(=O)[nH]c4=O)CC3O)nn2)c(=O)[nH]c1=O (centres undefined) | > 100 | > 100 | > 100 |  | > 100 | > 100 |  | > 100 | > 100 | 
COc1ccc(N=Nc2c(N)nn(C)c2N)cc1 | > 100 |  | > 100 | > 100 | > 100 | > 100 | > 100 | > 100 | > 100 | > 100
CCCCCCCCCCCCSC(=S)c1c(C)[nH]n(CCCCCCCCCCCC)c1=O | > 100 |  | > 100 | > 100 | > 100 | > 100 | > 100 | > 100 | > 100 | > 100
COC(=O)c1ccc2c(c1)sc1nc(-c3ccc(OC)cc3)cn12 | > 100 | > 100 | > 100 | > 100 | > 100 | > 100 | > 100 | > 100 | 53.6 | 
CCCC[C@H]1C(=O)O[C@H](C)[C@H](NC(=O)c2cccc(NC=O)c2OC)C(=O)O[C@@H](C)[C@@H]1OC(=O)CC(C)C (tested in a mixture with another compound) | 22.4 | 55.7 | 51.2 | 33.1 | 46.9 | 35 | 21.4 | 28.2 | 27.7 | 50.5
CCC(C)C(NC(=O)C(CC(C)C)NC(=O)CNC(=O)C(NC(=O)C1CCCN1C(=O)C(CC(C)C)NC(=O)C(N)Cc1ccccc1)C(C)CC)C(=O)NC(CC(C)C)C(N)=O (centres undefined) (H-FLPIGLIL-NH2; configuration not given here) | > 75 | > 75 | > 75 | > 75 | > 75 | > 75 |  | > 75 | > 75 | > 75
COc1ccc2c(c1)CCCc1c-2nc2ccccc2c1N | 20.8 | 26.1 | 26.5 | 13.7 | 30.9 | 28.4 | 16.9 | 27.3 | 15.1 | 6.32
O=C(CSSCC(=O)OCCS(=O)(=O)Nc1ccc(Br)cc1)OCCS(=O)(=O)Nc1ccc(Br)cc1 | 39.8 |  | 48.5 | 31.8 | 30 |  | > 100 | 83.7 | 26 | 
O=c1c(-c2ccccc2)c(SCCN2CCOCC2)n(-c2ccccc2)c(=S)n1-c1ccccc1 | > 100 | > 100 | > 100 |  | > 100 | > 100 | > 100 | > 100 | > 100 | > 100
CCCCCCCCCCCCCCCCCC(=O)OCC1OC(OC)C(NC(=O)N(CCCl)N=O)C(O)C1O (centres undefined) |  |  | > 100 | 63.6 | 67.9 | 86.8 | 33.5 | 85.8 | > 100 | > 100
O=c1[nH]c(=O)n(CCOCP(=O)(O)O)nc1Br | > 100 | > 100 | > 100 | > 100 | > 100 | > 100 | > 100 | > 100 | > 100 | > 100
Cc1cc(=O)n2c3c(c4c(cc13)c(CN(C)C)cc(=O)n4C)OC2 | > 100 | > 75.9 | > 56.7 | > 45.9 | 67.7 | > 67.1 | > 100 | > 100 | 45.1 | > 100
